Test results taken from patent US6960597B2, “Aza-bridged-bicyclic amino acid derivatives as α4 integrin antagonists” (Orth-McNeil Pharmaceutical, Inc., priority 2000, dated 2005).
Like-named read-outs stand apart in the source and are kept apart here.

Tests used:
human α4β7 = molecular target: T1, human α4β7 (Homo sapiens, UniProt P13612+P26010); experiment: α4β7-K562 Cell Adhesion Assay (α4β7 Mediated Adhesion/VCAM-1); format: cell-based
T1 construct: expressed in transfected cells
T1 sequence (P13612 34-1032): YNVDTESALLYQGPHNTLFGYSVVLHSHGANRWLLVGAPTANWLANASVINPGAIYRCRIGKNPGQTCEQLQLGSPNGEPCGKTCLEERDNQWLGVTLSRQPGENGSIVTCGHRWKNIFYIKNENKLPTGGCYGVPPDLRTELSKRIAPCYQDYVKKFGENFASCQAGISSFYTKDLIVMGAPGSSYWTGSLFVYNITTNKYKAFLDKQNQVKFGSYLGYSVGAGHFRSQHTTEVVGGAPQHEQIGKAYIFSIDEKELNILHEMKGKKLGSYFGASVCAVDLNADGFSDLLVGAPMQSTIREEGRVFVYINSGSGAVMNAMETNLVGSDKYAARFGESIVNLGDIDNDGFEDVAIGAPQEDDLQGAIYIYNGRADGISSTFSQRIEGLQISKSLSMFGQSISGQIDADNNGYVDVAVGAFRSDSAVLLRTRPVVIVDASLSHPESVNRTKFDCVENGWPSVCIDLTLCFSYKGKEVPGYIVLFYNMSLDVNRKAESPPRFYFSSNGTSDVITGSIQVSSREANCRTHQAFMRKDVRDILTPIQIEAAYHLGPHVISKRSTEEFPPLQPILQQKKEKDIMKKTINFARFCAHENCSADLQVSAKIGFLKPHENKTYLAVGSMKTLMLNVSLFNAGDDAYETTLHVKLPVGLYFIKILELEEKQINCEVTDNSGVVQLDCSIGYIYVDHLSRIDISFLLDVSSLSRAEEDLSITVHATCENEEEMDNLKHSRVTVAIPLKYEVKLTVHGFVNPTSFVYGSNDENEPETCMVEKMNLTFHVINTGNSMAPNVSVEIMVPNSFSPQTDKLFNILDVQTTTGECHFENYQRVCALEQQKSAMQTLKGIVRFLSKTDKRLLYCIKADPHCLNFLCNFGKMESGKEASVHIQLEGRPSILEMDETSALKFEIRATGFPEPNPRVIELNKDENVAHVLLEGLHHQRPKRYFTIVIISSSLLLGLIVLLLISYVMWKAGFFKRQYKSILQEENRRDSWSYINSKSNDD
T1 sequence (P26010 20-798): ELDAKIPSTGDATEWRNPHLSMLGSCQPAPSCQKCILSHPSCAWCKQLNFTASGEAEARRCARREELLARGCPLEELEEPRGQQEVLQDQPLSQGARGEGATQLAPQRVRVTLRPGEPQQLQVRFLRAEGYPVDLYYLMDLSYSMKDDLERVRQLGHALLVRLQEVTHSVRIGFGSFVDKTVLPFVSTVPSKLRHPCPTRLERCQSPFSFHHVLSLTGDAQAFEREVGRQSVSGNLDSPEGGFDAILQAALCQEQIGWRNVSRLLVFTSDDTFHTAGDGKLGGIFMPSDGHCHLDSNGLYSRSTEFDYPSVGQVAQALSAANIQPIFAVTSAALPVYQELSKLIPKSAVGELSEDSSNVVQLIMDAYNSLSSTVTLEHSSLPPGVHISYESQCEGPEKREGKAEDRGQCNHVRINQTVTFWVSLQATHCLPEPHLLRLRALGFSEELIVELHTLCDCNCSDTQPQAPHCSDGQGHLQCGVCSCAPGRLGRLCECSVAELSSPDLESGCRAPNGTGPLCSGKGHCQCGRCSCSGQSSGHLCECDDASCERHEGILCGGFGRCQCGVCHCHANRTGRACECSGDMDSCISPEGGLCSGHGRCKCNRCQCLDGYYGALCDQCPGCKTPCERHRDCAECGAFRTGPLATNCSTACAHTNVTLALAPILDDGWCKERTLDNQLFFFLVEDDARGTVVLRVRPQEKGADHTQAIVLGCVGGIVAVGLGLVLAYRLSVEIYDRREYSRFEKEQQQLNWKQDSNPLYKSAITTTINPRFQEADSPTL
Summary of the method: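 K562 cells stably expressing human α4β7, labelled with 5 μM Calcein AM, adhered for 1 h at room temperature to plates coated with recombinant hVCAM-1 (4.0 μg/mL) in the presence of compound. After washing, cells were lysed in Tris/SDS. Bound cells were read by fluorescence at 485/530 nm.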

α4β1 integrin receptor = molecular target: T2, α4β1 integrin receptor (Homo sapiens, UniProt P05556+P13612); experiment: Ramos Cell Adhesion Assay (α4β1 Mediated Adhesion/VCAM-1); format: cell-based
T2 construct: Ramos Cell Adhesion Assay (α4β1 Mediated Adhesion/VCAM-1); endogenous in cells; host or cells: Ramos cells
T2 sequence (P05556 21-798, one chain of several): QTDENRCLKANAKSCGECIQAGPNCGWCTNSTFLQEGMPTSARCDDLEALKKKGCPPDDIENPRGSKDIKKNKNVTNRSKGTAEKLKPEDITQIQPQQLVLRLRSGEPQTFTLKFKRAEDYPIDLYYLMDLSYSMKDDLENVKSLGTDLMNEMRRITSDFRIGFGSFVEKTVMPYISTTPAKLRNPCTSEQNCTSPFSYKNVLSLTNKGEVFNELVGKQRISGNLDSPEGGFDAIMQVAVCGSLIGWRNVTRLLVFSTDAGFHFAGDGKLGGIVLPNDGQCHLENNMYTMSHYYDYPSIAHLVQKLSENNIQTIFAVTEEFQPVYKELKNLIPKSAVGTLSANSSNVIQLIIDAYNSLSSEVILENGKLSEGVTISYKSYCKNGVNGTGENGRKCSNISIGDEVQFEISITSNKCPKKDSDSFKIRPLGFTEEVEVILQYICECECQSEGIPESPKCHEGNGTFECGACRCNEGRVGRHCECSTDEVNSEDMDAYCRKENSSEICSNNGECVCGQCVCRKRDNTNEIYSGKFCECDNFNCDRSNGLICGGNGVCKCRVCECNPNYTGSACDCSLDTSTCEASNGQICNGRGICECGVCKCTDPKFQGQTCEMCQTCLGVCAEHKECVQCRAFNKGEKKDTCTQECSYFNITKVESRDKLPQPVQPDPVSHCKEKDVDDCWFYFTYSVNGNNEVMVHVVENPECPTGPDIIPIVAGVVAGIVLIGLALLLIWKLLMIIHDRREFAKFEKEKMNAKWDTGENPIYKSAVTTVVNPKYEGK
Summary of the method: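 Plates coated overnight at 4° C with recombinant hVCAM-1 (4.0 μg/mL, pH 9.0), then blocked with PBS/1% BSA. Ramos cells labelled with 5 μM Calcein AM adhered 1 h at room temperature with compound; after washing, cells were lysed in SDS and fluorescence read at 485/530 nm.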

[1] = system: heterotopic heart allograft; conditions: hyperlipidemic rabbit; cited from earlier work
[2] = system: oxazolone-induced contact hypersensitivity; conditions: mouse; 6 mg/kg, sc; cited from earlier work
α4β1 = α4β1 (Homo sapiens, UniProt P05556+P13612); conditions: cited from earlier work
α4β1, sequence (P05556 21-798, one chain of several): as above

[3] = Table IV, μM, read-out: Inhibition of Binding of K562 Cells to Immobilized VCAM-1 IC50
[4] = Table III, read-out: Inhibition of Binding of Ramos Cells to Immobilized VCAM-1 IC50
[5] = Table IV, read-out: Inhibition of Binding of K562 Cells to Immobilized VCAM-1 IC50
[6] = Table III, μM, read-out: Inhibition of Binding of Ramos Cells to Immobilized VCAM-1 IC50

Row | Compound | IC50 (human α4β7; [3]) [µM] | IC50 (α4β1 integrin receptor; [4]) [µM] | IC50 (human α4β7; [5]) [µM] | other results
1 | CC(C)(C)c1ccc(C[C@H](NC(=O)C2C3CCC(CC3)N2S(=O)(=O)c2ccccc2)C(=O)O)cc1 (stereo partly drawn) [Cpd 58, 4-(1,1-dimethylethyl)-N-[[2-(phenylsulfonyl)-2-azabicyclo[2.2.2]oct-3-yl]carbonyl]-L-phenylalanine] | > 10 | 0.523 | – | –
2 | O=C(Nc1ccc(C[C@H](NC(=O)C2C3CCC(CC3)N2S(=O)(=O)c2ccccc2)C(=O)O)cc1)C1CCNCC1 (stereo partly drawn) [Cpd 59, 4-[(4-piperidinylcarbonyl)amino]-N-[[2-(phenylsulfonyl)-2-azabicyclo[2.2.2]oct-3-yl]carbonyl]-L-phenylalanine] | – | 0.237 | 1.5 | –
3 | O=C(O)C(Cc1ccc(OCc2c(Cl)cccc2Cl)c(F)c1)NC(=O)C1C2CCC(CC2)N1S(=O)(=O)c1ccccc1 (stereo not drawn) [Cpd 62] | > 10 | – | – | IC50 (α4β1 integrin receptor; [6]): > 5 µM
4 | O=C(O)[C@H](Cc1ccc(OCc2c(Cl)cccc2Cl)c(F)c1)NC(=O)[C@@H]1C2CCC(CC2)N1S(=O)(=O)c1ccccc1 [Cpd 62a, O-[(2,6-dichlorophenyl)methyl]-3-fluoro-N-[[(3S)-2-(phenylsulfonyl)-2-azabicyclo[2.2.2]oct-3-yl]carbonyl]-L-tyrosine] | > 10 | – | – | IC50 (α4β1 integrin receptor; [6]): > 5 µM
5 | CN(C)C(=O)Oc1ccc(C[C@H](NC(=O)C2C3CCC(CC3)N2S(=O)(=O)c2cccs2)C(=O)O)cc1 (stereo partly drawn) [Cpd 63, O-[(dimethylamino)carbonyl]-N-[[2-(2-thienylsulfonyl)-2-azabicyclo[2.2.2]oct-3-yl]carbonyl]-L-tyrosine] | – | – | – | IC50 (human α4β7): 0.286 µM; IC50 (α4β1 integrin receptor; Inhibition of Binding of Ramos Cells to Immobilized VCAM-1 IC50, Table III): 0.112 µM
6 | CC(C)(C)C(=O)Nc1ccc(C[C@H](NC(=O)[C@@H]2C3CCC(CC3)N2S(=O)(=O)c2ccccc2)C(=O)O)cc1 [Cpd 64, 4-[(2,2-dimethyl-1-oxopropyl)amino]-N-[[(3S)-2-(phenylsulfonyl)-2-azabicyclo[2.2.2]oct-3-yl]carbonyl]-L-phenylalanine] | > 10 | 0.393 | – | –
7 | CCOc1ccc2ccccc2c1C(=O)Nc1ccc(C[C@H](NC(=O)[C@@H]2C3CCC(CC3)N2S(=O)(=O)c2ccccc2)C(=O)O)cc1 [Cpd 65, 4-[[(2-ethoxy-1-naphthalenyl)carbonyl]amino]-N-[[(3S)-2-(phenylsulfonyl)-2-azabicyclo[2.2.2]oct-3-yl]carbonyl]-L-phenylalanine] | – | 0.193 | 0.394 | –
8 | O=C(Nc1ccc(C[C@H](NC(=O)C2C3CCC(CC3)N2S(=O)(=O)c2cccs2)C(=O)O)cc1)c1c(Cl)cccc1Cl (stereo partly drawn) [Cpd 66, 4-[(2,6-dichlorobenzoyl)amino]-N-[[2-(2-thienylsulfonyl)-2-azabicyclo[2.2.2]oct-3-yl]carbonyl]-L-phenylalanine] | – | 0.017 | 0.186 | –
9 | O=C(Nc1ccc(C[C@H](NC(=O)[C@@H]2C3CCC(CC3)N2S(=O)(=O)c2ccccc2)C(=O)O)cc1)C1CC1 [Cpd 67, 4-[(cyclopropylcarbonyl)amino]-N-[[(3S)-2-(phenylsulfonyl)-2-azabicyclo[2.2.2]oct-3-yl]carbonyl]-L-phenylalanine] | – | 0.628 | 0.683 | –
10 | CC1(C)C(C(=O)Nc2ccc(C[C@H](NC(=O)[C@@H]3C4CCC(CC4)N3S(=O)(=O)c3ccccc3)C(=O)O)cc2)C1(C)C [Cpd 68, 4-[[(2,2,3,3-tetramethylcyclopropyl)carbonyl]amino]-N-[[(3S)-2-(phenylsulfonyl)-2-azabicyclo[2.2.2]oct-3-yl]carbonyl]-L-phenylalanine] | > 50 | 0.873 | – | –
11 | CC(C)C(=O)Nc1ccc(C[C@H](NC(=O)[C@@H]2C3CCC(CC3)N2S(=O)(=O)c2ccccc2)C(=O)O)cc1 [Cpd 69, 4-[(2-methyl-1-oxopropyl)amino]-N-[[(3S)-2-(phenylsulfonyl)-2-azabicyclo[2.2.2]oct-3-yl]carbonyl]-L-phenylalanine] | – | 0.455 | 1.67 | –
12 | O=C(O)[C@H](Cc1ccc(NC(=O)[C@@H]2C3CCC(CC3)N2S(=O)(=O)c2ccccc2)cc1)NC(=O)[C@@H]1C2CCC(CC2)N1S(=O)(=O)c1ccccc1 [Cpd 70, 4-[[[(3S)-2-(phenylsulfonyl)-2-azabicyclo[2.2.2]oct-3-yl]carbonyl]amino]-N-[[(3S)-2-(phenylsulfonyl)-2-azabicyclo[2.2.2]oct-3-yl]carbonyl]-L-phenylalanine] | – | 0.37 | 2.03 | –
13 | O=C(Nc1ccc(C[C@H](NC(=O)[C@@H]2C3CCC(CC3)N2S(=O)(=O)c2cccs2)C(=O)O)cc1)c1c(Cl)cncc1Cl [Cpd 71a, 4-[[(3,5-dichloro-4-pyridinyl)carbonyl]amino]-N-[[(3S)-2-(2-thienylsulfonyl)-2-azabicyclo[2.2.2]oct-3-yl]carbonyl]-L-phenylalanine] | – | 0.36 | – | IC50 (human α4β7; Table I, racemic mixtures and resolved (S,S) and (R,S) diastereomers, read-out: Antagonist IC50 Activity α4β7): 0.033 µM; IC50 (α4β1 integrin receptor; Table I, racemic mixtures and resolved (S,S) and (R,S) diastereomers, read-out: Antagonist IC50 Activity α4β1): 0.006 µM
14 | Phenylacetyl-Leu-Asp-Phe-D-Pro-NH2 | – | – | – | efficacy in heterotopic heart allograft model [1]: effective; efficacy in oxazolone-induced contact hypersensitivity [2]: efficacy similar to the α4 antibody PS/2; IC50 (α4β1): 2000 nM
